These results are taken from ChEMBL document CHEMBL3991601, “The target landscape of clinical kinase drugs” (Science, 2017).

Calls of active or inactive are those of the source.

The target in assay [1] is T1, Cysteine--tRNA ligase, cytoplasmic (Homo sapiens, UniProt P49589).
T1 sequence (P49589 whole entry): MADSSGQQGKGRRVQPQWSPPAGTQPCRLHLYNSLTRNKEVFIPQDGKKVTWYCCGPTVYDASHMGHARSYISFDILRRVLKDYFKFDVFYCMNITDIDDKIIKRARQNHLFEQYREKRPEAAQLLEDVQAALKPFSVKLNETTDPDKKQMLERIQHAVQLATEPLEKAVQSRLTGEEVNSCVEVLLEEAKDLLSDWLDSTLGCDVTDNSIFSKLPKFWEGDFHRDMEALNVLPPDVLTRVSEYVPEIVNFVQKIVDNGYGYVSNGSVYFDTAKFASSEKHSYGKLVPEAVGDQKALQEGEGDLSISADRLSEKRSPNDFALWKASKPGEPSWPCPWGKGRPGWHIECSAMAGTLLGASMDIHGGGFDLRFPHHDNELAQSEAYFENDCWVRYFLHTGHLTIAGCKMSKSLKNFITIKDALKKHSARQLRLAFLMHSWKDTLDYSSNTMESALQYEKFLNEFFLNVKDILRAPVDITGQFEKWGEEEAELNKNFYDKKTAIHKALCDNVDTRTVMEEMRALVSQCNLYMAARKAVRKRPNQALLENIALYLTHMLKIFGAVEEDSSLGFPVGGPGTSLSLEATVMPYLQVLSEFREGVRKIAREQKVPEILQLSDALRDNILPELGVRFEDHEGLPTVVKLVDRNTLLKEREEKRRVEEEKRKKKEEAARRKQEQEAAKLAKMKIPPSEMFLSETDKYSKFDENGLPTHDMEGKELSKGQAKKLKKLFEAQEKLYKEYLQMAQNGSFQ

The target in assay [2] is T2, ATP-dependent 6-phosphofructokinase, platelet type (Homo sapiens, UniProt Q01813).
T2 sequence (Q01813 whole entry): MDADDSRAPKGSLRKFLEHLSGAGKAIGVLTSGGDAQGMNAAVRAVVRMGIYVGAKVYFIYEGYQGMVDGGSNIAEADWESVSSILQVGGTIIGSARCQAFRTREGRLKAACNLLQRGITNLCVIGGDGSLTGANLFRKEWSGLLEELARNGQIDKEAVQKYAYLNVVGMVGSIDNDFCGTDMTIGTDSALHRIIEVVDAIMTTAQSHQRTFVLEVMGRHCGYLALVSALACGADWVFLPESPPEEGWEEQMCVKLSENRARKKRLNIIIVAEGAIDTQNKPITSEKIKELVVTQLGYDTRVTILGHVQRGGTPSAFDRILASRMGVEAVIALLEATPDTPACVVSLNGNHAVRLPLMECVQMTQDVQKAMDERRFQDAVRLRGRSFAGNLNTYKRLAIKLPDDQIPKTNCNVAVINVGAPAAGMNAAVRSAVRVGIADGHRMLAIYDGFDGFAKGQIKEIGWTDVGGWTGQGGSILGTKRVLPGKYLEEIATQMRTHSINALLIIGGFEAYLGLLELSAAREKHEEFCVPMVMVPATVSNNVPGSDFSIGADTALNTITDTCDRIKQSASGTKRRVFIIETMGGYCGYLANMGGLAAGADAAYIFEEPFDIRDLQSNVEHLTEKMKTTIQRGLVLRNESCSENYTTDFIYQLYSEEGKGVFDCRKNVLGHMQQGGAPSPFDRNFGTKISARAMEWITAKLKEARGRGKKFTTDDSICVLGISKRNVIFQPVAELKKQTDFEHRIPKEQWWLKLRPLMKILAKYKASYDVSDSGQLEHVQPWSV

Assay [3] concerns the target Receptor-interacting serine/threonine-protein kinase 3 (Homo sapiens, UniProt Q9Y572).
Assay [4] has as its target U5 small nuclear ribonucleoprotein 200 kDa helicase (Homo sapiens, UniProt O75643).
The target of assay [5] is Tyrosine-protein kinase Fer (Homo sapiens, UniProt P16591).
Assay [6] concerns the target ATP-dependent RNA helicase DDX3X (Homo sapiens, UniProt O00571).
The target in assay [7] is Tyrosine-protein kinase FRK (Homo sapiens, UniProt P42685).
The target of assay [8] is T3, Phosphatidylinositol 5-phosphate 4-kinase type-2 gamma (Homo sapiens, UniProt Q8TBX8).
T3 sequence (Q8TBX8 whole entry): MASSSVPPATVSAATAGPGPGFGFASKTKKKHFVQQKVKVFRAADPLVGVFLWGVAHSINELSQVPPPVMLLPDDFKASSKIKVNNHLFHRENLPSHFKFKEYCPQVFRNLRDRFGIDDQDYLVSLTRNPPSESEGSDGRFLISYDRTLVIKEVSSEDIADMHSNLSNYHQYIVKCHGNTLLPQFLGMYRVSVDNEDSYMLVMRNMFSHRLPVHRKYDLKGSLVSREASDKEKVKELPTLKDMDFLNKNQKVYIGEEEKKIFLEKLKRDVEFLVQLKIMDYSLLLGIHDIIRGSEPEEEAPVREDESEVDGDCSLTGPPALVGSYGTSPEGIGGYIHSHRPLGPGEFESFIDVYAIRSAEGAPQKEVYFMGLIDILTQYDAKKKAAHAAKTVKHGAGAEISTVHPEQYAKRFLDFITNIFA

The target of assay [9] is Tyrosine-protein kinase HCK (Homo sapiens, UniProt P08631).
Assay [10] deals with Maternal embryonic leucine zipper kinase (Homo sapiens, UniProt Q14680).
Assay [11] addresses Serine/threonine-protein kinase pim-1 (Homo sapiens, UniProt P11309).
Further: in the data inactive means no Kd found up to 30 µM.

Sequence of U5 small nuclear ribonucleoprotein 200 kDa helicase (O75643 whole entry): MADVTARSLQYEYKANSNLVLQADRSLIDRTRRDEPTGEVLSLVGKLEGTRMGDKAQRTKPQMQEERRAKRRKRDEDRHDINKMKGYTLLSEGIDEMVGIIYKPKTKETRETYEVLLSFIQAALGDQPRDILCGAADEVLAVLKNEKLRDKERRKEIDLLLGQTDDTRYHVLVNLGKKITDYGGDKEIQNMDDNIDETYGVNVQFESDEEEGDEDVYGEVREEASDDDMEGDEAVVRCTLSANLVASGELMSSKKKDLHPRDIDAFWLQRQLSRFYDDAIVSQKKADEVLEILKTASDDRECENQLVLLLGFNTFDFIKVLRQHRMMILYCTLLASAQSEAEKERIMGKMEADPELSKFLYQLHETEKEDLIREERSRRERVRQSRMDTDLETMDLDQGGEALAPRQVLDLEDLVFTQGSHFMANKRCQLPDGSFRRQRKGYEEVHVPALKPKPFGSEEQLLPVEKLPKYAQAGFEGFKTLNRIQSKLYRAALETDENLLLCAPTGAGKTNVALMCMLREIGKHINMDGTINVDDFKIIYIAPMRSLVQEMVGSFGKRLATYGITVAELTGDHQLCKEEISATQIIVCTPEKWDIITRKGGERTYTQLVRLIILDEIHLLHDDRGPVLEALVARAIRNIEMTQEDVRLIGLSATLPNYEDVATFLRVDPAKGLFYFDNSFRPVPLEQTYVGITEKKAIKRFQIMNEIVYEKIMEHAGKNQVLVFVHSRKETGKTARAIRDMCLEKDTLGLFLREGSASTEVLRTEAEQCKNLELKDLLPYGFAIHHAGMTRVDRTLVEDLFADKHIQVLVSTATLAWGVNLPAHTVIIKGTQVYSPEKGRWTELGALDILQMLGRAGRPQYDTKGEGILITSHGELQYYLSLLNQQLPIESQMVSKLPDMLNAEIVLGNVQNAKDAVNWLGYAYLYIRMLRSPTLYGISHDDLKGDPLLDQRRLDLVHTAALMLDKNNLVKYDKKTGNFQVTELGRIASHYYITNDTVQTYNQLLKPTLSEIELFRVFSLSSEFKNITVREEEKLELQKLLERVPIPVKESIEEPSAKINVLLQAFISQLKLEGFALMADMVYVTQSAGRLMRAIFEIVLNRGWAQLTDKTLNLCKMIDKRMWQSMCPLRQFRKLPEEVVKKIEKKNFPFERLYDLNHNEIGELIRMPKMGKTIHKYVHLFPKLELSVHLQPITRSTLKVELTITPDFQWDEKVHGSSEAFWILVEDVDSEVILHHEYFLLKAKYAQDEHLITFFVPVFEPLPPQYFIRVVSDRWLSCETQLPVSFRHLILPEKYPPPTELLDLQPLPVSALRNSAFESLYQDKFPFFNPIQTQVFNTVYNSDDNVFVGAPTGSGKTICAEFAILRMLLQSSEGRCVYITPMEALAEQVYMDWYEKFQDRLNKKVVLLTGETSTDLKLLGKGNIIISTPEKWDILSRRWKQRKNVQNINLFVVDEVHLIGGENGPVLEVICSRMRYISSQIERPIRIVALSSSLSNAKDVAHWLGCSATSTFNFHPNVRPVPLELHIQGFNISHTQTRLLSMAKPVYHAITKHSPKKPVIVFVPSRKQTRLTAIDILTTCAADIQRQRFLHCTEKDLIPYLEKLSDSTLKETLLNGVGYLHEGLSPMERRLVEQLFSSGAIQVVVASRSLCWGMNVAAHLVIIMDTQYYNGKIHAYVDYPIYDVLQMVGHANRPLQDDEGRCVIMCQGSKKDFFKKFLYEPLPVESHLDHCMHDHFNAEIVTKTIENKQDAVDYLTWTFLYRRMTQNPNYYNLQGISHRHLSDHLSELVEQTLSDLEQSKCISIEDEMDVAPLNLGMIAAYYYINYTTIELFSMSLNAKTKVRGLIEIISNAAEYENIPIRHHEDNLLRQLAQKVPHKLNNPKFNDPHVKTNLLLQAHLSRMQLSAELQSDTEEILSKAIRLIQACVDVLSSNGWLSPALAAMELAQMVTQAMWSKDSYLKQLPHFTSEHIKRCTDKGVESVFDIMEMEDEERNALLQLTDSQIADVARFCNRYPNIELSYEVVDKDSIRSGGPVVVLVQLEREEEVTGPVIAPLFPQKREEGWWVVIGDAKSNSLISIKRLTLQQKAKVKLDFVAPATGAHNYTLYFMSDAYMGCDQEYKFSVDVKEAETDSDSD
Sequence of ATP-dependent RNA helicase DDX3X (O00571 whole entry): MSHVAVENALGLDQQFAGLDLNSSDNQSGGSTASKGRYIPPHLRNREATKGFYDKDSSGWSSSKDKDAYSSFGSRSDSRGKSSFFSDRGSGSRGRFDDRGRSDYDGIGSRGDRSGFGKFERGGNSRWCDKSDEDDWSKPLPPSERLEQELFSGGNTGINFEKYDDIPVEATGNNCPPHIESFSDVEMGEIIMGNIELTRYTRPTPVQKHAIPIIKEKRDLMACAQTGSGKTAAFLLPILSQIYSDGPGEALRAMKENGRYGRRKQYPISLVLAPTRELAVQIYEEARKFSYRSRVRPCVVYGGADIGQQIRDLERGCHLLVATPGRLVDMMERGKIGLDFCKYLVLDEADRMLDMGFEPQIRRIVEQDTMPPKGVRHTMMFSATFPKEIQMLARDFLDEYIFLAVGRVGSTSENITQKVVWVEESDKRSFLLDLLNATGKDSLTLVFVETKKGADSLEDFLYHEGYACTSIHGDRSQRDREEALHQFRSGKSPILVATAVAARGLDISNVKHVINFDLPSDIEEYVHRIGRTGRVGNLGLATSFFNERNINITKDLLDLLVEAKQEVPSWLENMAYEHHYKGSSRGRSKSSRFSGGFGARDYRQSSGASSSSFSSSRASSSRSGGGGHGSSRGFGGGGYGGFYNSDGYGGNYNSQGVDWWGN
Sequence of Tyrosine-protein kinase HCK (P08631 whole entry): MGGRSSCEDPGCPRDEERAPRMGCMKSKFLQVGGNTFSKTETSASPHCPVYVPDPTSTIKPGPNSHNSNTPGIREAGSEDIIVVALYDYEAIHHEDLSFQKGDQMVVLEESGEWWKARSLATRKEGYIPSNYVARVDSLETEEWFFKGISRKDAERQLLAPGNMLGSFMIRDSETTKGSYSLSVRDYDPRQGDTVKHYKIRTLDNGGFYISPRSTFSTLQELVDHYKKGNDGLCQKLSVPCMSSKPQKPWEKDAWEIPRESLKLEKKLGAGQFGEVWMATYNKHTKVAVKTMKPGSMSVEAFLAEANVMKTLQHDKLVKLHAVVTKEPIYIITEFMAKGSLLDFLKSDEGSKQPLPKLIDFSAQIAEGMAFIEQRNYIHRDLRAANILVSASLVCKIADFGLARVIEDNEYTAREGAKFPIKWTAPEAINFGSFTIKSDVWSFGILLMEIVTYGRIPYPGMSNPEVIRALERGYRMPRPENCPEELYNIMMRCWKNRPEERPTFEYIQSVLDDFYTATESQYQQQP
Sequence of Tyrosine-protein kinase Fer (P16591 whole entry): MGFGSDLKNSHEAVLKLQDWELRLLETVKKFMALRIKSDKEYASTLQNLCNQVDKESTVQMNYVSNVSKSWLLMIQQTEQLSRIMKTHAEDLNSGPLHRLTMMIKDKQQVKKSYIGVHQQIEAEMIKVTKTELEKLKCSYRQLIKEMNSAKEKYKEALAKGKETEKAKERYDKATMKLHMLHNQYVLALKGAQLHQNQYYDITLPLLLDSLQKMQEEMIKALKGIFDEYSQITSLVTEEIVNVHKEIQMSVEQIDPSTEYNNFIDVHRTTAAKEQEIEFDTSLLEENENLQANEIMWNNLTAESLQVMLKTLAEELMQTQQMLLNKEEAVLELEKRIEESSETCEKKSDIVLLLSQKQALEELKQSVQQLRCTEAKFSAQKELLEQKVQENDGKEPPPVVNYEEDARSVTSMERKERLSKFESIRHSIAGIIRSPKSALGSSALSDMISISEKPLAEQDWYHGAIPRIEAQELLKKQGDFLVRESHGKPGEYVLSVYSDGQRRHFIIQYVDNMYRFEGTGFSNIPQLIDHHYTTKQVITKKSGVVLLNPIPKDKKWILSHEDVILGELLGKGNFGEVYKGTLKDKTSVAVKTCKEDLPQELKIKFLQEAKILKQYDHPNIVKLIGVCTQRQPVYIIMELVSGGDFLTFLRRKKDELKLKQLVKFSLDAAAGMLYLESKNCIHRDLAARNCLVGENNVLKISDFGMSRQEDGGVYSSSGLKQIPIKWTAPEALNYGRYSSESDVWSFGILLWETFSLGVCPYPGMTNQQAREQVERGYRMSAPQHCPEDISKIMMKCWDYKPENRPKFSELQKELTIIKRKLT
Sequence of Tyrosine-protein kinase FRK (P42685 whole entry): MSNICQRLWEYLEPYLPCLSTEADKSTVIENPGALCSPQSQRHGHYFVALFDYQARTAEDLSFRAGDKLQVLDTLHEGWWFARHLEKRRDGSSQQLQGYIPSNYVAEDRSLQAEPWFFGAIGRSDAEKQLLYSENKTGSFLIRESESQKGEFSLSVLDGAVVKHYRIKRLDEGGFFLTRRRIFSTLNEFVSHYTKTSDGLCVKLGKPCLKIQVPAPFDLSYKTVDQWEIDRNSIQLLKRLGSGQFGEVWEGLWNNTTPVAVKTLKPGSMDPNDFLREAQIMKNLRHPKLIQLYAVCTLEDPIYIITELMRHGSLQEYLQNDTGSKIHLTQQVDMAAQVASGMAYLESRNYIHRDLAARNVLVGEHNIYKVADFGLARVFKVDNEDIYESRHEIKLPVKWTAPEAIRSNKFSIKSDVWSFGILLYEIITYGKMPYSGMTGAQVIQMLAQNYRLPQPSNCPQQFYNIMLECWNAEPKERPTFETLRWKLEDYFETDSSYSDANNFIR
Sequence of Serine/threonine-protein kinase pim-1 (P11309 whole entry): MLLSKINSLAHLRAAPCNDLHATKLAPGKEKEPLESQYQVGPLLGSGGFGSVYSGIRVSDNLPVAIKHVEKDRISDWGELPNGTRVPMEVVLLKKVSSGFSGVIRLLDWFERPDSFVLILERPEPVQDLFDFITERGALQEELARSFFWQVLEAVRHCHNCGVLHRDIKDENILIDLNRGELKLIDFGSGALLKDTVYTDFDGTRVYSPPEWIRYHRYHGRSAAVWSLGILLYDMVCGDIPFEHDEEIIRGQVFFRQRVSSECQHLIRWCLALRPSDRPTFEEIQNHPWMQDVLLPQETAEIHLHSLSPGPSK

In the case of `CCN(CCCOc1ccc2c(Nc3cc(CC(=O)Nc4cccc(F)c4)n[nH]3)ncnc2c1)CCOP(=O)(O)O` [BARASERTIB], the Kd in assay [1], in assay [2], in [3], in [4], in assay [5] and in [6] was > 30 µM (inactive) throughout. The Kd in [7] and in assay [8] was > 30 µM (inactive) each time.
Regarding `C=CCn1c(=O)c2cnc(Nc3ccc(N4CCN(C)CC4)cc3)nc2n1-c1cccc(C(C)(C)O)n1` [ADAVOSERTIB], the Kd in [1], in assay [2], in [9], in assay [3], in assay [4] and in assay [5] was > 30 µM (inactive) each time. Besides, the Kd in [6], in assay [7], in assay [8] and in [10] was > 30 µM (inactive) each time.
Take `COc1cc2c(N3CCN(C(=O)Nc4ccc(OC(C)C)cc4)CC3)ncnc2cc1OCCCN1CCCCC1` [TANDUTINIB]: the Kd in assay [3] and in [6] was > 30 µM (inactive) throughout.
Turning to `COc1cc2c(Oc3ccc4[nH]c(C)cc4c3F)ncnc2cc1OCCCN1CCCC1` [CEDIRANIB], the Kd in assay [1], in assay [2], in assay [3], in [4] and in assay [6] was > 30 µM (inactive) throughout.
Take `CCN1CCN(Cc2ccc(Nc3ncc(F)c(-c4cc(F)c5nc(C)n(C(C)C)c5c4)n3)nc2)CC1` [ABEMACICLIB]: the Kd in assay [2], in assay [9], in assay [3], in assay [4], in assay [5] and in assay [6] was > 30 µM (inactive) each time. For the same molecule, the Kd in assay [7], in assay [8] and in [10] was > 30 µM (inactive) throughout.
Consider `Cn1cnc2c(F)c(Nc3ccc(Br)cc3Cl)c(C(=O)NOCCO)cc21` [SELUMETINIB], for which the Kd in [1], in [2], in [3], in assay [4] and in assay [6] was > 30 µM (inactive) in each case.
For `CN(C)C/C=C/C(=O)Nc1cc2c(Nc3ccc(F)c(Cl)c3)ncnc2cc1O[C@H]1CCOC1` [AFATINIB], the Kd in assay [1], in [3], in [4] and in assay [6] was > 30 µM (inactive) throughout.
For the molecule `Cc1cc(-c2cc(OC(=O)c3ccccc3)ccc2Cl)cc2nnc(Nc3ccc(OCCN4CCCC4)cc3)nc12` [TG100-801], the Kd in assay [9], in assay [3], in assay [5], in assay [11], in assay [6] and in assay [7] was > 30 µM (inactive) in each case. The Kd in assay [8] and in [10] was > 30 µM (inactive) in each case.
`CN(c1ncccc1CNc1nc(Nc2ccc3c(c2)CC(=O)N3)ncc1C(F)(F)F)S(C)(=O)=O` [PF-00562271]: the Kd in [1], in assay [2], in [3], in [4], in [6] and in [8] was > 30 µM (inactive) each time.
Take `CC1(C)CNc2cc(NC(=O)c3cccnc3NCc3ccncc3)ccc21` [MOTESANIB]: the Kd in assay [1] is > 30 µM (inactive); in assay [2] it was > 30 µM (inactive); in [3] it was 1.04 µM (active); in assay [4], > 30 µM (inactive); in assay [6], > 30 µM (inactive).
For `C[C@@]1(C(=O)Nc2ccc(F)nc2)CCCN1c1nc(Nc2cc(C3CC3)n[nH]2)c2cccn2n1` [BMS-754807], the Kd in [1], in assay [2], in assay [3], in [4] and in assay [6] was > 30 µM (inactive) throughout.
Turning to `O=S(=O)(c1cccc2cnccc12)N1CCCNCC1` [FASUDIL], the Kd in assay [1], in assay [2], in [9], in assay [3], in [5] and in assay [6] was > 30 µM (inactive) in each case. Also, the Kd in [7] was > 30 µM (inactive); in assay [8] it was > 30 µM (inactive); in assay [10], 1.92 µM (active).
Turning to `O=C(O)c1ccc2c(c1)nc(Nc1cccc(Cl)c1)c1ccncc12` [SILMITASERTIB], the Kd in [1] was > 30 µM (inactive); in [2] it was > 30 µM (inactive); in assay [9] it was > 30 µM (inactive); in [3] it was 2.18 µM (active); in assay [4], > 30 µM (inactive); in [5], > 30 µM (inactive). In addition, the Kd in assay [6] is > 30 µM (inactive); in assay [7], > 30 µM (inactive); in [8] it was 1.11 µM (active); in [10], > 30 µM (inactive).
As to `C[C@]1(O)C[C@@H](c2nc(-c3ccc4ccc(-c5ccccc5)nc4c3)c3c(N)nccn32)C1` [LINSITINIB], the Kd is > 30 µM (inactive) in assay [1]; > 30 µM (inactive) in [2]; > 30 µM (inactive) in assay [9]; 6.05 µM (active) in assay [3]; > 30 µM (inactive) in [4]; > 30 µM (inactive) in [6]. Also, in assay [8], the equilibrium dissociation constant (Kd) was 5.57 µM (active).
Take `Cn1c(=O)n(-c2ccc(C(C)(C)C#N)cc2)c2c3cc(-c4cnc5ccccc5c4)ccc3ncc21` [DACTOLISIB]: the Kd in assay [1], in [2], in assay [9], in assay [3], in assay [4] and in assay [5] was > 30 µM (inactive) throughout. The Kd in assay [6], in assay [7], in assay [8] and in [10] was > 30 µM (inactive) in each case.
